# In US20230286958A1, “PLASMA KALLIKREIN INHIBITORS” (Merck Sharp & Dohme LLC, priority 2020, published 2023):
# What was measured:
# human Factor XIa = human Factor XIa (Homo sapiens (Human), UniProt P03951); experiment: Factor XIa Assay (fluorogenic substrate GPR-AFC); format: biochemical; details: Factor XIa (FXIa)
# Human plasma kallikrein = Human plasma kallikrein (Homo sapiens (Human), UniProt P03952); experiment: Kallikrein Assay (fluorogenic substrate Acetyl-K-P-R-AFC); format: biochemical; details: Plasma Kallikrein (PKal)
# How it was run: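 Ki is derived from IC50 with the Cheng-Prusoff equation, and IC50 from the inflection point of a four-parameter logistic curve. The rate of AFC release is read with 0.5 nM purified enzyme and […] substrate at room temperature or 37 °C.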
# Sequence of Human plasma kallikrein (P03952 391-638): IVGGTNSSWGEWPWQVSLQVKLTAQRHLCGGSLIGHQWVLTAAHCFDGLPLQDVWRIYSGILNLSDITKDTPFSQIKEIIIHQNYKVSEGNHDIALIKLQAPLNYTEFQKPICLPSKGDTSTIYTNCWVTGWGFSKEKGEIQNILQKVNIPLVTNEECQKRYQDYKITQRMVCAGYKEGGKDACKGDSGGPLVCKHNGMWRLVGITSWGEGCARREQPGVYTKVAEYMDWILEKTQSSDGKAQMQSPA
# Sequence of Human plasma kallikrein (P03952 20-390 partner): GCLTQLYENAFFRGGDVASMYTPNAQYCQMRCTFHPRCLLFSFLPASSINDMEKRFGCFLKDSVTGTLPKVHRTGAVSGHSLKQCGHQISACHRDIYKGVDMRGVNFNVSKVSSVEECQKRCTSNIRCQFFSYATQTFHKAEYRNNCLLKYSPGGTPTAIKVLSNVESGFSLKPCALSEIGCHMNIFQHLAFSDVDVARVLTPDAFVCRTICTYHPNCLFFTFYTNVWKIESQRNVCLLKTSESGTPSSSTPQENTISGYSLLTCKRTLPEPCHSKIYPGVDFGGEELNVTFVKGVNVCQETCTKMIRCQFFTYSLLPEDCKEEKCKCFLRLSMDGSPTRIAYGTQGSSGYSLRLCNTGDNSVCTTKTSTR
# Sequence of human Factor XIa (P03951 388-625 limits assumed): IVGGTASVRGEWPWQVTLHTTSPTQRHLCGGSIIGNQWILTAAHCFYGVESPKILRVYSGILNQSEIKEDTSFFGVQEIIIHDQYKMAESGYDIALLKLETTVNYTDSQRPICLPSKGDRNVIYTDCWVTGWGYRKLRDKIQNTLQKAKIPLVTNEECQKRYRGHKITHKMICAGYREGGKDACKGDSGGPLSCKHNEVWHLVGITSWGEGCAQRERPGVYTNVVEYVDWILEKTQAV
# Sequence of human Factor XIa (P03951 19-387 partner limits assumed): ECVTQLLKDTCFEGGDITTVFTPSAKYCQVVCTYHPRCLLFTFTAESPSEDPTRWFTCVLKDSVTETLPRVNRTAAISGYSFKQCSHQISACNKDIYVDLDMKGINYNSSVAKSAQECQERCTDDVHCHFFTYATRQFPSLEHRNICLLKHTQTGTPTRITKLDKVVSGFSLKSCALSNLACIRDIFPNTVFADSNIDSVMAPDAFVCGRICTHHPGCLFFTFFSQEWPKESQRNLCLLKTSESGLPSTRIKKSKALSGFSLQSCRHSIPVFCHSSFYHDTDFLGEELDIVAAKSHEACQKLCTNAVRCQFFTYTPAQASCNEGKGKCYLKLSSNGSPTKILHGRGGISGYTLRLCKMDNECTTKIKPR
Compound,IC50 (human Factor XIa),IC50 (Human plasma kallikrein)
"Cc1nc(N2C[C@H]3C[C@H]3C2=O)ncc1Cn1ncc(NC(=O)c2nc(-c3c(C(F)F)ccc(Cl)c3F)cnc2C)n1 [Example 184, 6-(3-Chloro-6-(difluoromethyl)-2-fluorophenyl)-3-methyl-N-(2-((4-methyl-2-((1R,5S)-2-oxo-3-azabicyclo[3.1.0]hexan-3-yl)pyrimidin-5-yl)methyl)-2H-1,2,3-triazol-4-yl)pyrazine-2-carboxamide]",7.73 µM,0.0081 µM
"Cc1cc(C(C)n2cc(NC(=O)c3nc(-c4c(OC(F)F)ccc(Cl)c4F)cnc3C)cn2)cnc1N1C[C@H]2C[C@H]2C1=O (single isomer, unassigned) [Example 132, 6-(3-Chloro-6-(difluoromethoxy)-2-fluorophenyl)-3-methyl-N-(1-((R or S)-1-(5-methyl-6-((1R,5S)-2-oxo-3-azabicyclo[3.1.0]hexan-3-yl)pyridin-3-yl)ethyl)-1H-pyrazol-4-yl)pyrazine-2-carboxamide]",0.139 µM,0.0006 µM
"Cc1cc(Cn2ncc(NC(=O)c3nc(-c4c(C(F)F)ccc(Cl)c4F)cnc3C)n2)cnc1N1C[C@H]2C[C@H]2C1=O [Example 187, 6-(3-Chloro-6-(difluoromethyl)-2-fluorophenyl)-3-methyl-N-(2-((5-methyl-6-((1R,5S)-2-oxo-3-azabicyclo[3.1.0]hexan-3-yl)pyridin-3-yl)methyl)-2H-1,2,3-triazol-4-yl)pyrazine-2-carboxamide]",5.67 µM,0.0043 µM
"CC(c1cnc(N2C[C@H]3C[C@H]3C2=O)c(F)c1)n1cc(NC(=O)c2nc(-c3c(C(F)F)ccc(Cl)c3F)cnc2COC(C)(C)C)cn1 (single isomer, unassigned) [Example 143, 3-(tert-Butoxymethyl)-6-(3-chloro-6-(difluoromethyl)-2-fluorophenyl)-N-(1-((S or R)-1-(5-fluoro-6-((1R,5S)-2-oxo-3-azabicyclo[3.1.0]hexan-3-yl)pyridin-3-yl)ethyl)-1H-pyrazol-4-yl)pyrazine-2-carboxamide]",4.31 µM,0.0049 µM
"Cc1nc(Cn2cc(NC(=O)c3nc(-c4c(C(F)F)ccc(Cl)c4F)cnc3C)cn2)ccc1N1C[C@H]2C[C@H]2C1=O [Example 63, 6-(3-Chloro-6-(difluoromethyl)-2-fluorophenyl)-3-methyl-N-(1-((6-methyl-5-((1R,SS)-2-oxo-3-azabicyclo[3.1.0]hexan-3-yl)pyridin-2-yl)methyl)-1H-pyrazol-4-yl)pyrazine-2-carboxamide]",> 10 µM,0.0017 µM
"Cc1ncc(-c2c(C(F)F)ccc(Cl)c2F)nc1C(=O)Nc1cnn([C@@H](C)c2cnc(N3C[C@H]4C[C@H]4C3=O)c(O)c2)c1 [Example 217, 6-(3-Chloro-6-(difluoromethyl)-2-fluorophenyl)-N-(1-((S)-1-(5-hydroxy-6-((1R,5S)-2-oxo-3-azabicyclo[3.1.0]hexan-3-yl)pyridin-3-yl)ethyl)-1H-pyrazol-4-yl)-3-methylpyrazine-2-carboxamide]",4.15 µM,0.0149 µM
"Cc1ncc(-c2c(C#N)ccc(Cl)c2F)nc1C(=O)Nc1cnn(C(CO)c2cnc(N3C[C@H]4C[C@H]4C3=O)nc2)c1 (single isomer, unassigned) [Example 166, 6-(3-Chloro-6-cyano-2-fluorophenyl)-N-(1-((R or S)-2-hydroxy-1-(2-((1R,5S)-2-oxo-3-azabicyclo[3.1.0]hexan-3-yl)pyrimidin-5-yl)ethyl)-1H-pyrazol-4-yl)-3-methylpyrazine-2-carboxamide]",> 10 µM,0.0197 µM
"Cc1ncc(-c2c(C(F)F)ccc(Cl)c2F)nc1C(=O)Nc1cnn(C(C)c2cnc(N3C[C@H]4C[C@H]4C3=O)c3c2OCO3)c1 (single isomer, unassigned) [Example 252, 6-(3-Chloro-6-(difluoromethyl)-2-fluorophenyl)-3-methyl-N-(1-((R or S)-1-(4-((1R,5S)-2-oxo-3-azabicyclo[3.1.0]hexan-3-yl)-[1,3]dioxolo[4,5-c]pyridin-7-yl)ethyl)-1H-pyrazol-4-yl)pyrazine-2-carboxamide]",1.83 µM,0.0009 µM
"Cc1nc(N2C[C@H]3C[C@H]3C2=O)ncc1Cn1cc(NC(=O)c2nc(-c3c(C(F)F)ccc(Cl)c3F)cnc2C)nn1 [Example 183, 6-(3-Chloro-6-(difluoromethyl)-2-fluorophenyl)-3-methyl-N-(1-((4-methyl-2-((1R,5S)-2-oxo-3-azabicyclo[3.1.0]hexan-3-yl)pyrimidin-5-yl)methyl)-1H-1,2,3-triazol-4-yl)pyrazine-2-carboxamide]",> 10 µM,0.0306 µM
"Cc1cc(Cn2cc(NC(=O)c3nc(-c4c(OC(F)F)ccc(Cl)c4F)cnc3C)cn2)nnc1N1C[C@H]2C[C@H]2C1=O [Example 113, 6-(3-Chloro-6-(difluoromethoxy)-2-fluorophenyl)-3-methyl-N-(1-((5-methyl-6-((1R,SS)-2-oxo-3-azabicyclo[3.1.0]hexan-3-yl)pyridazin-3-yl)methyl)-1H-pyrazol-4-yl)pyrazine-2-carboxamide]",0.114 µM,0.0021 µM
"Cc1cc(Cn2cc(NC(=O)c3nc(-c4c(C(F)F)ccc(Cl)c4F)cnc3C)cn2)cnc1N1C[C@H]2C[C@H]2C1=O [Example 41, 6-(3-Chloro-6-(difluoromethyl)-2-fluorophenyl)-3-methyl-N-(1-((5-methyl-6-((1R,5S)-2-oxo-3-azabicyclo[3.1.0]hexan-3-yl)pyridin-3-yl)methyl)-1H-pyrazol-4-yl)pyrazine-2-carboxamide]",0.053 µM,0.0002 µM
"Cc1nc(N2C[C@H]3C[C@H]3C2=O)c(F)cc1C(C)n1cc(NC(=O)c2cncc(-c3c(C(F)F)ccc(Cl)c3F)n2)cn1 (some centres unmarked) [Example 151, 6-(3-Chloro-6-(difluoromethyl)-2-fluorophenyl)-N-(1-(1-(5-fluoro-2-methyl-6-((1R.5S)-2-oxo-3-azabicyclo[3.1.0]hexan-3-yl)pyridin-3-yl)ethyl)-1H-pyrazol-4-yl)pyrazine-2-carboxamide]",> 10 µM,0.0058 µM
"Cc1nc(N2C[C@H]3C[C@H]3C2=O)ncc1C(C)n1cc(NC(=O)c2nc(-c3c(C(F)F)ccc(Cl)c3F)cc(=O)n2C)cn1 (single isomer, unassigned) [Example 80, 4-(3-Chloro-6-(difluoromethyl)-2-fluorophenyl)-1-methyl-N-(1-((R or S)-1-(4-methyl-2-((1R,5S)-2-oxo-3-azabicyclo[3.1.0]hexan-3-yl)pyrimidin-5-yl)ethyl)-1H-pyrazol-4-yl)-6-oxo-1,6-dihydropyrimidine-2-carboxamide]",0.284 µM,0.0253 µM
"Cc1nc(C(C)n2cc(NC(=O)c3nc(-c4c(C(F)F)ccc(Cl)c4F)cnc3C(F)F)cn2)cnc1N1C[C@H]2C[C@H]2C1=O (single isomer, unassigned) [Example 100, 6-(3-Chloro-6-(difluoromethyl)-2-fluorophenyl)-3-(difluoromethyl)-N-(1-((S or R)-1-(6-methyl-5-((1R,5S)-2-oxo-3-azabicyclo[3.1.0]hexan-3-yl)pyrazin-2-yl)ethyl)-1H-pyrazol-4-yl)pyrazine-2-carboxamide]",2 µM,0.0017 µM
"CC(c1cnc(N2CC3CC3C2=O)nc1)n1cc(NC(=O)c2cncc(-c3c(OC(F)F)ccc(Cl)c3F)n2)cn1 (single isomer, unassigned) [Example 72, 6-(3-Chloro-6-(difluoromethoxy)-2-fluorophenyl)-N-(1-((R or S)-1-(2-((1R,5S or 1S,5R)-2-oxo-3-azabicyclo[3.1.0]hexan-3-yl)pyrimidin-5-yl)ethyl)-1H-pyrazol-4-yl)pyrazine-2-carboxamide]",2.74 µM,0.0037 µM
"CC(c1cnc(N2C[C@H]3C[C@H]3C2=O)c2c1OCO2)n1cc(NC(=O)c2cncc(-c3c(C(F)F)ccc(Cl)c3F)n2)cn1 (single isomer, unassigned) [Example 250, 6-(3-Chloro-6-(difluoromethyl)-2-fluorophenyl)-N-(1-((R or S)-1-(4-((1R,5S)-2-oxo-3-azabicyclo[3.1.0]hexan-3-yl)-[1,3]dioxolo[4,5-c]pyridin-7-yl)ethyl)-1H-pyrazol-4-yl)pyrazine-2-carboxamide]",1.32 µM,0.0032 µM
"CC(c1cnc(N2C[C@H]3C[C@H]3C2=O)c(F)c1)n1cc(NC(=O)c2nc(-c3c(C(F)F)ccc(Cl)c3F)cnc2CO)cn1 (single isomer, unassigned) [Example 205, 6-(3-Chloro-6-(difluoromethyl)-2-fluorophenyl)-N-(1-((S or R)-1-(5-fluoro-6-((1R,5S)-2-oxo-3-azabicyclo[3.1.0]hexan-3-yl)pyridin-3-yl)ethyl)-1H-pyrazol-4-yl)-3-(hydroxymethyl)pyrazine-2-carboxamide]",0.389 µM,0.0003 µM
"Cc1cc(C(C)n2cc(NC(=O)c3cncc(-c4c(OC(F)F)ccc(Cl)c4F)n3)cn2)nnc1N1C[C@H]2C[C@H]2C1=O (single isomer, unassigned) [Example 115, 6-(3-Chloro-6-(difluoromethoxy)-2-fluorophenyl)-N-(1-((R or S)-1-(5-methyl-6-((1R,5S)-2-oxo-3-azabicyclo[3.1.0]hexan-3-yl)pyridazin-3-yl)ethyl)-1H-pyrazol-4-yl)pyrazine-2-carboxamide]",0.468 µM,0.0025 µM
"Cc1ncc(-c2c(C(F)F)ccc(Cl)c2F)nc1C(=O)Nc1cnn(Cc2cnc(N3C[C@H]4C[C@H]4C3=O)c(C)n2)c1 [Example 46, 6-(3-Chloro-6-(difluoromethyl)-2-fluorophenyl)-3-methyl-N-(1-((6-methyl-5-((1R,5S)-2-oxo-3-azabicyclo[3.1.0]hexan-3-yl)pyrazin-2-yl)methyl)-1H-pyrazol-4-yl)pyrazine-2-carboxamide]",0.755 µM,0.0009 µM
